Values joined by “and” are separate entries in the source; they are usually repeats but may differ in a detail not shown here. Equal values may be shown once.
Tests used:
[1] = molecular target: T1, EGFR with insertion SVD between D770 and N771 (mutEGFR D770_N771insSVD) (Homo sapiens, UniProt P00533, DUP768-770); assay: Exon20-Mutant-EGFR(D770_N771insSVD) kinase assay (TR-FRET); type: biochemical; conditions: 2 mM ATP, Table 2
T1 construct: amino acids R669 to A1210; made in house; host or cells: Sf9 insect cells (baculovirus)

Bub1 = molecular target: T2, Bub1 (Homo sapiens, UniProt O43683); assay: Bub1 high ATP kinase assay (TR-FRET); type: biochemical; conditions: Bub1 high ATP (2 mM) IC50, TR-FRET, 2 mM ATP; Table 3
T2 construct: catalytic domain of human Bub1 (amino acids 704-1085); His6 (N); made in house; host or cells: insect cells (Hi5)
Source text: Bub1 high ATP Kinase Assay
Bub1-inhibitory activity of compounds of the present invention at a high ATP concentration was quantified employing the Bub1 TR-FRET high ATP kinase assay as described in the following paragraphs.
N-terminally His6-tagged recombinant catalytic domain of human Bub1 (amino acids 704-1085), expressed in insect cells (Hi5) and purified by Ni-NTA affinity chromatography and subsequent size exclusion chromatography, was used as enzyme. As substrate for the kinase reaction the biotinylated peptide biotin-Ahx-[…] (C-terminus in amid form) was used which can be purchased e.g. form the company Biosyntan (Berlin, Germany).
Then the kinase reaction was started by the addition of 2 μl of a solution of Bub1 in assay buffer and the resulting mixture was incubated for a reaction time of 60 min at 22° C. The concentration of Bub1 was adjusted depending of the activity of the enzyme lot and was chosen appropriate to have the assay in the linear range, a typical concentration is about 200 ng/ml. The reaction was stopped by the addition of 3 μl of a solution of TR-FRET detection reagents (0.167 μM streptavidine-XL665 [Cisbio Bioassays, Codolet, France] and 1.67 nM anti-phosho-Serine antibody [Merck Millipore, cat. #35-002] and 0.67 nM LANCE EU-W1024 labeled anti-mouse IgG antibody [Perkin-Elmer, product no. AD0077, as an alternative a Terbium-cryptate-labeled anti-mouse IgG antibody from Cisbio Bioassays can be used]) in an aqueous EDTA-solution (83.3 mM EDTA, 0.2% (w/v) bovine serum albumin in 100 mM HEPES pH 7.5).
The resulting mixture was incubated 1 h at 22° C. to allow the formation of complex between the phosphorylated biotinylated peptide and the detection reagents. Subsequently the amount of phosphorylated substrate was evaluated by measurement of the resonance energy transfer from the Eu-chelate to the streptavidine-XL. Therefore, the fluorescence emissions at 620 nm and 665 nm after excitation at 350 nm was measured in a TR-FRET reader, e.g. a Pherastar or Pherastar FS (both from BMG Labtechnologies, Offenburg, Germany) or a Viewlux (Perkin-Elmer). The ratio of the emissions at 665 nm and at 622 nm was taken as the measure for the amount of phosphorylated substrate.

[2] = molecular target: Ba/F3-EGFR-D770_N771insSVD cells (Homo sapiens, UniProt P00533, DUP768-770, cells depend on it); assay: Ba/F3 cell survival assay, EGFR D770_N771insSVD; type: cell-based; conditions: Cell Titer-Glo, 48 h, without IL-3; Table 4; read-out: BA/F3 (insSVD) IC50
Ba/F3-EGFR-WT cells = Ba/F3-EGFR-WT cells (Homo sapiens, UniProt P00533); assay: Ba/F3 cell survival assay, wild type EGFR; type: cell-based; conditions: Cell Titer-Glo, 48 h, with 10 ng/mL EGF; Table 4; read-out: BA/F3 (wild type) IC50
Ba/F3-EGFR-WT cells, sequence (P00533 whole entry, looked up, change not shown): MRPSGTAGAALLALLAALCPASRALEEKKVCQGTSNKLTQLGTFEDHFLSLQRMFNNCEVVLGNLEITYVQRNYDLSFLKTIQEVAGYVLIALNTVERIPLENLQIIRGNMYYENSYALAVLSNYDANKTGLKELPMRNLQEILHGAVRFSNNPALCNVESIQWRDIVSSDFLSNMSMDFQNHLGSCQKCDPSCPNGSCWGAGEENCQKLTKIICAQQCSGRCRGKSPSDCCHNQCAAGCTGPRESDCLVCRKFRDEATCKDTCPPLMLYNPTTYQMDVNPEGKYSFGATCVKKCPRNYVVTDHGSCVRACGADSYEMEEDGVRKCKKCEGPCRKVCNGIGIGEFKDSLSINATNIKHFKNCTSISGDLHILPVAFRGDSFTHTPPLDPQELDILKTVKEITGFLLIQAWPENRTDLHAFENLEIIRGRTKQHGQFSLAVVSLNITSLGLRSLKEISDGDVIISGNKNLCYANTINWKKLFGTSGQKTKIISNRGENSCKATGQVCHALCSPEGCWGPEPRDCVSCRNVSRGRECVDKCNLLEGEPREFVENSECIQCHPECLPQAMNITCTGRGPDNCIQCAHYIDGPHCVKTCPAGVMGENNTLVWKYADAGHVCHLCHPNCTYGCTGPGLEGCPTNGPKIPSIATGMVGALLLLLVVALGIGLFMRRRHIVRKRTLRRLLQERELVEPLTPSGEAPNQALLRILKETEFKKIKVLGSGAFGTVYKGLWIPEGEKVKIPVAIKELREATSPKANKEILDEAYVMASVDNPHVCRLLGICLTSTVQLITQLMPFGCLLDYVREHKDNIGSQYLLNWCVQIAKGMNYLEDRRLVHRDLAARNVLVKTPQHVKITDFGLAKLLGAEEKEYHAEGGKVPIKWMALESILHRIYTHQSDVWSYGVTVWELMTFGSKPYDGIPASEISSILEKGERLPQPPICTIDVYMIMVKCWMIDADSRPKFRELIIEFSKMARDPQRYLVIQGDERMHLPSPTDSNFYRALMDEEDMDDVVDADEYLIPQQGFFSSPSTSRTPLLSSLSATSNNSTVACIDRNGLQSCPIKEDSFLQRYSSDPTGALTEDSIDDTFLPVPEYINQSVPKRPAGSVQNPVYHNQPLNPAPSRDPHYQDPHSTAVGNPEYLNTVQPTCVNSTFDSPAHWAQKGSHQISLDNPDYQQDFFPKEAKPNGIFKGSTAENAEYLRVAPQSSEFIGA

Ba/F3-EGFR-D770_N771insSVD cells, sequence (P00533 with tags, fused parts or gaps DUP768-770): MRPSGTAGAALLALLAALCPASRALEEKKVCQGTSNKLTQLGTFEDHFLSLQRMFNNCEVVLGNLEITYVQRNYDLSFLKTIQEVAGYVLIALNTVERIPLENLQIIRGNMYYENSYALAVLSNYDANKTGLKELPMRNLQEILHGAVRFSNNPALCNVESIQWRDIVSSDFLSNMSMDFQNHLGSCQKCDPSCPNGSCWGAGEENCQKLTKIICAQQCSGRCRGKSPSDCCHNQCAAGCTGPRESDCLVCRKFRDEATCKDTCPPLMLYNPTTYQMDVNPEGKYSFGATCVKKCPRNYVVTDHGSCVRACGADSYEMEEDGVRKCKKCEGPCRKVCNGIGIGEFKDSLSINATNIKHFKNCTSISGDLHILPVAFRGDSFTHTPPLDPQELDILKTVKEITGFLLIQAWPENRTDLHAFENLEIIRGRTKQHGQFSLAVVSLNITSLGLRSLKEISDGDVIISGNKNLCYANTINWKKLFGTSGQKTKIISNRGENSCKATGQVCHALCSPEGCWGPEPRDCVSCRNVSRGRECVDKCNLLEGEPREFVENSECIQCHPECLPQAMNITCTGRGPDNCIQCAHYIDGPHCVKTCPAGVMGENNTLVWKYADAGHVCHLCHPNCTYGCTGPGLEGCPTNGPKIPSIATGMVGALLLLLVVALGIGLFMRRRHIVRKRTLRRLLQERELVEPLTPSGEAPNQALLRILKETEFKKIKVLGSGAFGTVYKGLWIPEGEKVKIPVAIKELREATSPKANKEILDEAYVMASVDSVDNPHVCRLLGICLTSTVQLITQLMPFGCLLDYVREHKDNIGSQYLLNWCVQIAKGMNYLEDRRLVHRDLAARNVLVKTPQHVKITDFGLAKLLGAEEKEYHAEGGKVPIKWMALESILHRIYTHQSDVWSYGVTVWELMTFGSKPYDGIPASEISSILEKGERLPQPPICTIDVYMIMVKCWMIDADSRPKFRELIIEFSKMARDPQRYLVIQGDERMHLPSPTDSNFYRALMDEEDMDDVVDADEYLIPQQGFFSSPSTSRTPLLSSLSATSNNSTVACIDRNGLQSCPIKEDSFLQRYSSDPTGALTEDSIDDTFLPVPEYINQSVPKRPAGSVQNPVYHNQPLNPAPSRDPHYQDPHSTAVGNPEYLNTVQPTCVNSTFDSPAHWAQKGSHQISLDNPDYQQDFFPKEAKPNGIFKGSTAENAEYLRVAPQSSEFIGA
T2 sequence (O43683 704-1085): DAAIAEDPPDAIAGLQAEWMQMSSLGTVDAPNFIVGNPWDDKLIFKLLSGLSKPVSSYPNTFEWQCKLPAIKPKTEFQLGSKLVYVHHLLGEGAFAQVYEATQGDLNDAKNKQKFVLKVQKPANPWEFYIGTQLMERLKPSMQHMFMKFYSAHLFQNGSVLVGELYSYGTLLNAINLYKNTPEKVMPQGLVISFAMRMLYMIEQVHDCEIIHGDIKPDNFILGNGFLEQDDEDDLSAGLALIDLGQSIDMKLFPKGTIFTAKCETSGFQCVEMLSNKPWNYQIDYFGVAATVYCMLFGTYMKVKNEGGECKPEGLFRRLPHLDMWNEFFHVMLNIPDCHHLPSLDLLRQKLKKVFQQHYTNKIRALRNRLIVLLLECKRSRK
T1 sequence (P00533 other isoform, or with tags, fused parts or gaps DUP768-770): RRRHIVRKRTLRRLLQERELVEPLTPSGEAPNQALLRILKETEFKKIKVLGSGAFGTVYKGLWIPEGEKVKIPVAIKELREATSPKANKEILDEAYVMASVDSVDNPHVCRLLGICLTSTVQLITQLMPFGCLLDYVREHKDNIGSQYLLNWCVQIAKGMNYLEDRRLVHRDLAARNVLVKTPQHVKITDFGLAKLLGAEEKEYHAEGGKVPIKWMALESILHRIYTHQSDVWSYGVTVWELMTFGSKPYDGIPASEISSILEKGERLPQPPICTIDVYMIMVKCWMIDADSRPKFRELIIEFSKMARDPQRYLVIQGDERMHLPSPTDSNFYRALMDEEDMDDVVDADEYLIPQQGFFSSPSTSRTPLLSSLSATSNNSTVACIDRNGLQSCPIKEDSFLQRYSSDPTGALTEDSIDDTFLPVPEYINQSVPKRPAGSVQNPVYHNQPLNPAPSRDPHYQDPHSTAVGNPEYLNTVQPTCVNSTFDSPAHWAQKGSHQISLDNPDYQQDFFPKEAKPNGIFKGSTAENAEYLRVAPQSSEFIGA

Row | mutEGFR (D770_N771insSVD) kinase assay IC50 [1] | IC50 (Bub1) | Structure (SMILES) | GI50 [2] | GI50 (Ba/F3-EGFR-WT cells)
1 | 0.239 nM | 758 nM | COc1c(Cl)cccc1Nc1c(-c2ccncc2OC[C@@H]2CCCO2)[nH]c2c1C(=O)NC1CCCC21 (stereo in doubt) [Example 55, (5aR*,8aS*)-3-(3-chloro-2-methoxyanilino)-2-(3-{[(2S)-oxolan-2-yl]methoxy}-4-pyridyl)-5,5a,6,7,8,8a-hexahydrocyclopenta[b]pyrrolo[2,3-d]pyridin-4(1H)-one] | 75.1 nM | 978 nM
2 | 0.122 nM | 741 nM | COc1c(Cl)cccc1Nc1c(-c2ccncc2OCCC(C)OC)[nH]c2c1C(=O)N[C@H](C)C2 (single isomer, unassigned) [Example 122] | 23.8 nM | 506 nM
3 | 0.333 nM | 1210 nM | CCc1c(Cl)cccc1Nc1c(-c2ccncc2OC[C@@H]2COCCO2)[nH]c2c1C(=O)N[C@H](C)C2 [Example 110, (6R)-3-(3-chloro-2-ethylanilino)-2-(3-{[(2S)-1,4-dioxan-2-yl]methoxy}pyridin-4-yl)-6-methyl-1,5,6,7-tetrahydro-4H-pyrrolo[3,2-c]pyridin-4-one] | 40.3 nM | 780 nM
4 | 0.186 nM | 5740 nM | COc1c(Cl)cccc1Nc1c(-c2ccncc2OCC2OCCC2(F)F)[nH]c2c1C(=O)N[C@H](C)C2 (mixture of isomers) [Example 71, (6R)-3-(3-chloro-2-methoxy-anilino)-2-{3-[(3,3-difluorotetrahydrofuran-2-yl)methoxy]-4-pyridyl}-6-methyl-1,5,6,7-tetrahydropyrrolo[3,2-c]pyridin-4-one] | 42.9 nM | 731 nM
5 | 0.201 nM | 5160 nM | COc1c(Cl)cccc1Nc1c(-c2ccncc2OCC2COCCO2)[nH]c2c1C(=O)NCC2C (stereo not shown) [Example 33, 3-(3-chloro-2-methoxy-anilino)-2-[3-(1,4-dioxan-2-ylmethoxy)-4-pyridyl]-7-methyl-1,5,6,7-tetrahydropyrrolo[3,2-c]pyridin-4-one] | 73.1 nM | 844 nM
6 | 0.147 nM | 11300 nM | COc1c(Cl)cccc1Nc1c(-c2ccncc2OC[C@@H]2CCCO2)[nH]c2c1C(=O)NCC2C (mixture of isomers) [Example 30, 3-(3-chloro-2-methoxy-anilino)-7-methyl-2-(3-{[(2S)-tetrahydrofuran-2-yl]methoxy}-4-pyridyl)-1,5,6,7-tetrahydropyrrolo[3,2-c]pyridin-4-one] | 44 nM | 606 nM
7 | 0.455 nM | 17300 nM and > 20000 nM | COc1c(Cl)cccc1Nc1c(-c2ccncc2OCC2COC(C)(C)CO2)[nH]c2c1C(=O)N[C@H](C)C2 (single isomer, unassigned) [Example 79] | 151 nM | 1910 nM
8 | 0.189 nM | 3630 nM | COc1c(Cl)cccc1Nc1c(-c2ccncc2OCC(C)(C)OC)[nH]c2c1C(=O)NCC2CCO (stereo not shown) [Example 13, 3-(3-chloro-2-methoxyanilino)-7-(2-hydroxyethyl)-2-[3-(2-methoxy-2-methylpropoxy)pyridin-4-yl]-1,5,6,7-tetrahydro-4H-pyrrolo[3,2-c]pyridin-4-one] | 35 nM | 339 nM
9 | 1.17 nM | > 20000 nM | COc1c(Cl)cccc1Nc1c(-c2ccncc2OCC2CCCCO2)[nH]c2c1C(=O)NCC2C (single isomer, unassigned) [Example 46, 3-(3-chloro-2-methoxy-anilino)-7-methyl-2-[3-(tetrahydropyran-2-ylmethoxy)-4-pyridyl]-1,5,6,7-tetrahydropyrrolo[3,2-c]pyridin-4-one] | 125 nM | 2750 nM
10 | 0.553 nM | > 20000 nM | COc1c(Cl)cccc1Nc1c(-c2ccncc2OC[C@@H]2CCCO2)[nH]c2c1C(=O)NCC2CC=C(F)F (single isomer, unassigned) [Example 101] | 42.1 nM | 603 nM
11 | 0.143 nM | 2710 nM | COc1c(Cl)cccc1Nc1c(-c2ccncc2OCC(C)OC)[nH]c2c1C(=O)N[C@H](C)C2 (single isomer, unassigned) [Example 82] | 13.9 nM | 248 nM
12 | 0.285 nM | 16400 nM | Cc1c(Cl)cccc1Nc1c(-c2ccncc2OC[C@@H]2CCCO2)[nH]c2c1C(=O)NCC2C (single isomer, unassigned) [Example 59] | 41.9 nM | 609 nM
13 | 0.19 nM | 2700 nM | Cc1c(Cl)cccc1Nc1c(-c2ccncc2OCC2OCCCC2(F)F)[nH]c2c1C(=O)NCC2C (stereo not shown) [Example 61, 3-(3-chloro-2-methyl-anilino)-2-[3-[(3,3-difluorotetrahydropyran-2-yl)methoxy]-4-pyridyl]-7-methyl-1,5,6,7-tetrahydropyrrolo[3,2-c]pyridin-4-one] | 20.5 nM | 534 nM
14 | 0.104 nM | 11100 nM | COc1c(Cl)cccc1Nc1c(-c2ccncc2OCC2OCCCC2(F)F)[nH]c2c1C(=O)N[C@H](C)C2 (single isomer, unassigned) [Example 75] | 18.2 nM | 264 nM
15 | 0.113 nM | 3010 nM | COc1c(Cl)cccc1Nc1c(-c2ccncc2OC[C@@H]2CCCO2)[nH]c2c1C(=O)N[C@@H](C)C2 (single isomer, unassigned) [Example 4] | 95.3 nM | 883 nM
16 | 0.242 nM | > 20000 nM | COc1c(Cl)cccc1Nc1c(-c2ccncc2OCC2OCCCC2(F)F)[nH]c2c1C(=O)N[C@H](C)C2 (mixture of isomers) [Example 74, (6R)-3-(3-chloro-2-methoxy-anilino)-2-{3-[(3,3-difluorotetrahydropyran-2-yl)methoxy]-4-pyridyl}-6-methyl-1,5,6,7-tetrahydropyrrolo[3,2-c]pyridin-4-one] | 14 nM | 457 nM
17 | 18.8 nM | > 20000 nM | COc1c(Cl)cccc1Nc1c(-c2ccncc2OC[C@@H]2CCCO2)[nH]c2c1C(=O)NC(C(F)(F)F)C2 (single isomer, unassigned) [Example 39] | 786 nM and > 1000 nM | 4120 nM
18 | 0.4 nM | 5420 nM | COc1c(Cl)cccc1Nc1c(-c2ccncc2OC[C@@H]2COCCN2C)[nH]c2c1C(=O)N[C@H](C)C2 [Example 93, (6R)-3-(3-chloro-2-methoxyanilino)-6-methyl-2-(3-{[(3S)-4-methylmorpholin-3-yl]methoxy}pyridin-4-yl)-1,5,6,7-tetrahydro-4H-pyrrolo[3,2-c]pyridin-4-one] | 8.67 nM | 254 nM
19 | 0.329 nM | 8030 nM | Cc1c(Cl)cccc1Nc1c(-c2ccncc2OCC2COC(C)(C)CO2)[nH]c2c1C(=O)NCC2C (stereo not shown) [Example 62, 3-(3-chloro-2-methyl-anilino)-2-[3-[(5,5-dimethyl-1,4-dioxan-2-yl)methoxy]-4-pyridyl]-7-methyl-1,5,6,7-tetrahydropyrrolo[3,2-c]pyridin-4-one] | 52.6 nM | 1100 nM

Source: patent US20230064983A1 (priority 2020, published 2023)
